Patent US7612081B2 (priority 2003, dated 2009)
Like-named read-outs stand apart in the source and are kept apart here.

Columns and labels:
[1] = system: Saccharomyces cerevisiae yeast strain EKY3 (top1Δ), YCpGAL1-hTOP1G363C; experiment: Yeast in-vivo spot test, G363C mutant; format: cell-based; conditions: 45 μM
From the text: (§1) To identify camptothecin derivatives that overcome the resistance to camptothecin induced by point mutations on topisomerase I DNA in the Saccharomyces cerevisiae yeast model, an in-vivo and an in-vitro system were used in parallel.
(§2) A number of mutations are present close to the active site of the enzyme (tyrosine 723) and others around position 363 which corresponds to a very well conserved region.
(§3) Before effecting the transformation of the yeasts, the yeasts were unfrozen and plated with a sterile bent glass rod in 90-mm plates containing sterile solid YPDa medium (10 g of yeast extract, 20 g of peptone, 20 g of dextrose, 0.7 g of adenine, 20 g of glucose, 20 g of agar per liter). Colonies formed after 48-72 hours in an incubator at 30° C.
(§4) One day before the transformation, a single yeast colony sample was taken with a sterile Gilson tip and inoculated in 5 ml of sterile liquid YPDA medium (the above-mentioned medium without agar). […]
(§5) Before treating the yeasts with the camptothecin derivatives (in-vivo spot test), the transformed colonies were inoculated with a Gilson tip in 5 ml sterile liquid CM medium. […] On the day after, the optical density of the colonies was measured at 600 nm and a dilution of the colonies was performed in order to obtain an optical density of 0.3. […] The colonies were incubated at 30° C. for 48-72 hours and analysed macroscopically.

[2] = system: NCl—H460 non-microcytoma lung cancer cells; experiment: Cytotoxic activity on NCl—H460 cells (sulforodamine B); conditions: for IC50: read-out: IC50 (product concentration that inhibits cell survival by 50%), 2 hours exposure, 72 hours recovery, mean ± SD
Experimental: NCl—H460 non-microcytoma lung cancer cells were kept in RPMI 1640 culture medium containing 10% FCS and 1% glutamine. The cytotoxicity test to analyse the activity of the molecules was performed as follows. The cells were seeded in a volume of 250 μl in 96-well plates and incubated for 2 hours at 37° C. with scalar concentrations of the products in a humidified atmosphere containing 5% CO2. At the end of the incubation, the molecules were removed by overturning the plates and adding sterile buffered saline solution (PBS) three times. The RPMI 1640 culture medium containing 10% FCS (200 μl) was added to the wells and the plates were incubated for another 72 hours. At the end of the incubation, the plates were overturned again and dried on paper, before adding 200 μl of PBS and 50 μl of 80% TCA. The plates were incubated again in ice for at least 1 hour. The TCA was removed by overturning the plates and the plates were first dried on paper and then washed three times by immersion in distilled water and overturning. The plates were dried first on paper and then in a thermostatically regulated incubator at 60° C. for 10 min. 200 μl of 0.4% sulforodamine B in 1% acetic acid were added to all wells. The plates were incubated at room temperature for another 30 min. The sulforodamine B was removed by overturning, the plates were washed by immersion in 1% acetic acid three times and then dried first on blotting paper and then in the thermostat at 60° C. for 10 min. Lastly, 200 μl of Tris base 10 mM were added to all wells and the plates were subjected to stirring for at least 20 min. The optical density was measured with a Multiskan spectrophotometer at 540 nm.

[3] = system: Saccharomyces cerevisiae yeast strain EKY3 (top1Δ), YCpGAL-1hTOP1A653P; experiment: Yeast in-vivo spot test, A653P mutant; format: cell-based; conditions: 45 μM
From the text: as §1, §2, §3, §4, §5

[4] = system: Saccharomyces cerevisiae yeast strain EKY3 (top1Δ), Topoisomerase I wild-type (TOP1); experiment: Yeast in-vivo spot test, wild-type TOP1; format: cell-based; conditions: 45 μM
Experimental: One day before the transformation, a single yeast colony sample was taken with a sterile Gilson tip and inoculated in 5 ml of sterile liquid YPDA medium (the above-mentioned medium without agar). The colony was grown overnight under stirring at 30° C. […]

[5] = system: Saccharomyces cerevisiae yeast strain EKY3 (top1Δ), YCpGAL1-hTOP1K720E; experiment: Yeast in-vivo spot test, K720E mutant; format: cell-based; conditions: 45 μM
From the text: as §1, §2, §3, §4, §5

[6] = system: MKN-28 human gastric carcinoma; conditions: for LCK (1000 mm^3) (log cell kill): q4dx4; for TVI % (tumor volume inhibition): q4dx4, 20 days after last treatment
Experimental: Tumor fragments were inoculated on both flanks at day 0. Treatment started when tumors were just palpable. The molecule was given by oral route and intravenously according to the schedule q4d×4. During the treatment, animals were inspected every day for mortality. Physical appearance, behavior and general and local clinical signs of the mice will be observed daily. Any deviation from normality was recorded. All animals were weighed during the whole treatment period, in order to calculate the percent body weight loss due to the treatment.
Tumor volume inhibition % in treated over control tumors was evaluated 20 days after last treatment. To determine the antitumor activity of the drug, tumor diameters was measured biweekly with a Vernier caliper. The formula TV (mm^3)=[length (mm)×width (mm)^2]/2 was used, where the width and the length are the shortest and the longest diameters of each tumor, respectively.
When tumors reached a weight of about 2 g, the mice were sacrificed by cervical dislocation. LCK (log cell kill) as index of efficacy was calculated to evaluate the persistence of the effect of the molecule at the end of the treatment.

7-[(N′, N″-tert-butoxycarbonyl)-spermidine-imino-methyl]-20S-camptothecin [ST2598]
Phenotype of mutated enzyme G363C towards the derivative [1]: resistant
Cytotoxicity on the lung cancer line (in words) [2]: very potent cytotoxicity
IC50 [2]: 15 ± 2 nM
Phenotype of mutated enzyme A653P towards the derivative [3]: resistant
Phenotype of Topoisomerase I wild-type towards the derivative [4]: sensitivity

CCC1(O)C(=O)OCc2c1cc1n(c2=O)Cc2c-1nc1ccccc1c2C=NOCCCNC(=O)OC(C)(C)C (stereo not drawn) [ST2664, 7-[3-(N-tert-butoxycarbonyl)-amino-1-propoxyiminomethyl]20S-camptothecin]
IC50 [2]: > 200 nM

7-[(N′,N″-Di-benzyloxycarbonyl)-spermidineiminomethyl]-20S-camptothecin [ST2729]
IC50 [2]: 34 ± 7 nM

7-[N-(N′-tert-butoxcarbonyl)-putrescinimino-methyl]-20S-camptothecin [ST2615]
IC50 [2]: > 200 nM

CC[C@@]1(O)C(=O)OCc2c1cc1n(c2=O)Cc2c-1nc1ccccc1c2C=NCC1CCN(C(=O)OC(C)(C)C)CC1 [ST2665]
IC50 [2]: > 200 nM

7-[(N′,N″,N′″-tert-butoxycarbonyl)-spermine-imino-methyl]-20S-camptothecin [ST2544]
Phenotype of K720E mutant towards the derivative [5]: sensitivity
Phenotype of mutated enzyme G363C towards the derivative [1]: resistant
IC50 [2]: 12.9 ± 1.8 nM
Phenotype of mutated enzyme A653P towards the derivative [3]: resistant
LCK (1000 mm^3) (log cell kill) ([6]; iv, 1 mg/kg): 0.2
TVI % (tumor volume inhibition) ([6]; iv, 1 mg/kg): 34%
LCK (1000 mm^3) (log cell kill) ([6]; iv, 2 mg/kg): 0.2
TVI % (tumor volume inhibition) ([6]; iv, 2 mg/kg): 36%
LCK (1000 mm^3) (log cell kill) ([6]; iv, 4 mg/kg): 0.8
TVI % (tumor volume inhibition) ([6]; iv, 4 mg/kg): 66%
LCK (1000 mm^3) (log cell kill) ([6]; p.o., 1 mg/kg): 0.1
TVI % (tumor volume inhibition) ([6]; p.o., 1 mg/kg): 28%
LCK (1000 mm^3) (log cell kill) ([6]; p.o., 2 mg/kg): 0.5
TVI % (tumor volume inhibition) ([6]; p.o., 2 mg/kg, 2 mg/kg): 62%
TVI % (tumor volume inhibition) ([6]; p.o., 4 mg/kg, 4 mg/kg): 72%
Phenotype of Topoisomerase I wild-type towards the derivative [4]: sensitivity

CCC1(O)C(=O)OCc2c1cc1n(c2=O)Cc2c-1nc1ccccc1c2C=NOCCCN(CCCCNC(=O)OC(C)(C)C)C(=O)OC(C)(C)C (centres unmarked) [ST2872]
IC50 [2]: > 200 nM
